Reference: PubChem BioAssay AID2060627 (Molecular Pharmacology Branch, DTP, NCI, 2025)

tested on: 156681-154-R-J1-PDC complex spheroid viability; assay: Anticancer human tumor 156681-154-R-J1-PDC patient-derived melanoma cell line growth inhibition [CLK]; conditions: second compound 1 µM; first compound 0.0316 µM; hits give low values
Summary of the method: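 Multi-cell-type spheroids combined patient-derived tumor cells with HUVEC endothelial cells and human mesenchymal stem cells. Paired agents were dosed in half-log steps down from about clinical Cmax, or from 10 microM where Cmax was unknown.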
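Further: spheroids exposed to the agents for seven days; 100% = DMSO vehicle control viability.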

Point of comparison: COc1ccc([C@@H](O)c2cc(-c3ncnc4cc(N5CCOCC5)ccc34)c(F)cc2Cl)nn1 + CN1CCN(c2cc(C(=O)Nc3cc4cc(-c5cnn(C)c5)ccc4cn3)ccn2)CC1, viability, T/C 0.13%. Against it:
- CCCS(=O)(=O)Nc1ccc(F)c(C(=O)c2c[nH]c3ncc(-c4ccc(Cl)cc4)cc23)c1F + CNC(=O)c1ccc(Nc2nc(OC3CCCC3)c3c(-c4ccc5nc(C)oc5c4)c[nH]c3n2)c(OC)c1 — higher, 45.8%
- O=C(c1cc(Cc2n[nH]c(=O)c3ccccc23)ccc1F)N1CCN(C(=O)C2CC2)CC1 + CNC(=O)c1ccc(Nc2nc(OC3CCCC3)c3c(-c4ccc5nc(C)oc5c4)c[nH]c3n2)c(OC)c1 — higher, 59.7%
- CC(Nc1ccc2c(c1)OCCn1cc(N3C(=O)OCC3C(F)F)nc1-2)C(N)=O (stereo not given) + CN1CCN(c2cc(C(=O)Nc3cc4cc(-c5cnn(C)c5)ccc4cn3)ccn2)CC1 — higher, 0.14%

same assay, conditions: second compound 1 µM; first compound 0.1 µM; hits give low values

Point of comparison: C=C(F)C(=O)N1CCN(c2nc(OCC3CCCN3C)nc3c2CCN(c2cccc4cccc(Cl)c24)C3)CC1CC#N (stereo not given) + CN1CCN(c2cc(C(=O)Nc3cc4cc(-c5cnn(C)c5)ccc4cn3)ccn2)CC1, viability, T/C 0.32%. Against it:
- COc1ccc([C@@H](O)c2cc(-c3ncnc4cc(N5CCOCC5)ccc34)c(F)cc2Cl)nn1 + CN1CCN(c2cc(C(=O)Nc3cc4cc(-c5cnn(C)c5)ccc4cn3)ccn2)CC1 — higher, 2%
- CCCS(=O)(=O)Nc1ccc(F)c(C(=O)c2c[nH]c3ncc(-c4ccc(Cl)cc4)cc23)c1F + CNC(=O)c1ccc(Nc2nc(OC3CCCC3)c3c(-c4ccc5nc(C)oc5c4)c[nH]c3n2)c(OC)c1 — higher, 48.7%
- O=C(c1cc(Cc2n[nH]c(=O)c3ccccc23)ccc1F)N1CCN(C(=O)C2CC2)CC1 + CNC(=O)c1ccc(Nc2nc(OC3CCCC3)c3c(-c4ccc5nc(C)oc5c4)c[nH]c3n2)c(OC)c1 — higher, 48.5%
- CC(Nc1ccc2c(c1)OCCn1cc(N3C(=O)OCC3C(F)F)nc1-2)C(N)=O (stereo not given) + CN1CCN(c2cc(C(=O)Nc3cc4cc(-c5cnn(C)c5)ccc4cn3)ccn2)CC1 — higher, 0.42%

same assay, conditions: second compound 1 µM; first compound 0.316 µM; hits give low values

Point of comparison: CCCS(=O)(=O)Nc1ccc(F)c(C(=O)c2c[nH]c3ncc(-c4ccc(Cl)cc4)cc23)c1F + CNC(=O)c1ccc(Nc2nc(OC3CCCC3)c3c(-c4ccc5nc(C)oc5c4)c[nH]c3n2)c(OC)c1, viability, T/C 42.8%. Against it:
- C=C(F)C(=O)N1CCN(c2nc(OCC3CCCN3C)nc3c2CCN(c2cccc4cccc(Cl)c24)C3)CC1CC#N (stereo not given) + CN1CCN(c2cc(C(=O)Nc3cc4cc(-c5cnn(C)c5)ccc4cn3)ccn2)CC1 — lower, 0.25%
- COc1ccc([C@@H](O)c2cc(-c3ncnc4cc(N5CCOCC5)ccc34)c(F)cc2Cl)nn1 + CN1CCN(c2cc(C(=O)Nc3cc4cc(-c5cnn(C)c5)ccc4cn3)ccn2)CC1 — lower, 1.91%
- O=C(c1cc(Cc2n[nH]c(=O)c3ccccc23)ccc1F)N1CCN(C(=O)C2CC2)CC1 + CNC(=O)c1ccc(Nc2nc(OC3CCCC3)c3c(-c4ccc5nc(C)oc5c4)c[nH]c3n2)c(OC)c1 — higher, 48.9%
- CC(Nc1ccc2c(c1)OCCn1cc(N3C(=O)OCC3C(F)F)nc1-2)C(N)=O (stereo not given) + CN1CCN(c2cc(C(=O)Nc3cc4cc(-c5cnn(C)c5)ccc4cn3)ccn2)CC1 — lower, 0.1%

same assay, conditions: second compound 1 µM; first compound 1 µM; hits give low values

Point of comparison: CCCS(=O)(=O)Nc1ccc(F)c(C(=O)c2c[nH]c3ncc(-c4ccc(Cl)cc4)cc23)c1F + CNC(=O)c1ccc(Nc2nc(OC3CCCC3)c3c(-c4ccc5nc(C)oc5c4)c[nH]c3n2)c(OC)c1, viability, T/C 40.3%. Against it:
- C=C(F)C(=O)N1CCN(c2nc(OCC3CCCN3C)nc3c2CCN(c2cccc4cccc(Cl)c24)C3)CC1CC#N (stereo not given) + CN1CCN(c2cc(C(=O)Nc3cc4cc(-c5cnn(C)c5)ccc4cn3)ccn2)CC1 — lower, 0.59%
- COc1ccc([C@@H](O)c2cc(-c3ncnc4cc(N5CCOCC5)ccc34)c(F)cc2Cl)nn1 + CN1CCN(c2cc(C(=O)Nc3cc4cc(-c5cnn(C)c5)ccc4cn3)ccn2)CC1 — lower, 0.33%
- O=C(c1cc(Cc2n[nH]c(=O)c3ccccc23)ccc1F)N1CCN(C(=O)C2CC2)CC1 + CNC(=O)c1ccc(Nc2nc(OC3CCCC3)c3c(-c4ccc5nc(C)oc5c4)c[nH]c3n2)c(OC)c1 — higher, 47.9%
- CC(Nc1ccc2c(c1)OCCn1cc(N3C(=O)OCC3C(F)F)nc1-2)C(N)=O (stereo not given) + CN1CCN(c2cc(C(=O)Nc3cc4cc(-c5cnn(C)c5)ccc4cn3)ccn2)CC1 — lower, 0.05%

same assay, conditions: second compound 1 µM; first compound 3.16 µM; hits give low values

Point of comparison: CC(Nc1ccc2c(c1)OCCn1cc(N3C(=O)OCC3C(F)F)nc1-2)C(N)=O (stereo not given) + CN1CCN(c2cc(C(=O)Nc3cc4cc(-c5cnn(C)c5)ccc4cn3)ccn2)CC1, viability, T/C 0.4%. Against it:
- C=C(F)C(=O)N1CCN(c2nc(OCC3CCCN3C)nc3c2CCN(c2cccc4cccc(Cl)c24)C3)CC1CC#N (stereo not given) + CN1CCN(c2cc(C(=O)Nc3cc4cc(-c5cnn(C)c5)ccc4cn3)ccn2)CC1 — lower, 0.1%
- COc1ccc([C@@H](O)c2cc(-c3ncnc4cc(N5CCOCC5)ccc34)c(F)cc2Cl)nn1 + CN1CCN(c2cc(C(=O)Nc3cc4cc(-c5cnn(C)c5)ccc4cn3)ccn2)CC1 — higher, 1.72%
- CCCS(=O)(=O)Nc1ccc(F)c(C(=O)c2c[nH]c3ncc(-c4ccc(Cl)cc4)cc23)c1F + CNC(=O)c1ccc(Nc2nc(OC3CCCC3)c3c(-c4ccc5nc(C)oc5c4)c[nH]c3n2)c(OC)c1 — higher, 39.1%
- O=C(c1cc(Cc2n[nH]c(=O)c3ccccc23)ccc1F)N1CCN(C(=O)C2CC2)CC1 + CNC(=O)c1ccc(Nc2nc(OC3CCCC3)c3c(-c4ccc5nc(C)oc5c4)c[nH]c3n2)c(OC)c1 — higher, 42.8%

same assay, conditions: second compound 1 µM; first compound 10 µM; hits give low values

Point of comparison: C=C(F)C(=O)N1CCN(c2nc(OCC3CCCN3C)nc3c2CCN(c2cccc4cccc(Cl)c24)C3)CC1CC#N (stereo not given) + CN1CCN(c2cc(C(=O)Nc3cc4cc(-c5cnn(C)c5)ccc4cn3)ccn2)CC1, viability, T/C 0.24%. Against it:
- COc1ccc([C@@H](O)c2cc(-c3ncnc4cc(N5CCOCC5)ccc34)c(F)cc2Cl)nn1 + CN1CCN(c2cc(C(=O)Nc3cc4cc(-c5cnn(C)c5)ccc4cn3)ccn2)CC1 — higher, 2.7%
- CCCS(=O)(=O)Nc1ccc(F)c(C(=O)c2c[nH]c3ncc(-c4ccc(Cl)cc4)cc23)c1F + CNC(=O)c1ccc(Nc2nc(OC3CCCC3)c3c(-c4ccc5nc(C)oc5c4)c[nH]c3n2)c(OC)c1 — higher, 12.5%
- O=C(c1cc(Cc2n[nH]c(=O)c3ccccc23)ccc1F)N1CCN(C(=O)C2CC2)CC1 + CNC(=O)c1ccc(Nc2nc(OC3CCCC3)c3c(-c4ccc5nc(C)oc5c4)c[nH]c3n2)c(OC)c1 — higher, 25.8%
- CC(Nc1ccc2c(c1)OCCn1cc(N3C(=O)OCC3C(F)F)nc1-2)C(N)=O (stereo not given) + CN1CCN(c2cc(C(=O)Nc3cc4cc(-c5cnn(C)c5)ccc4cn3)ccn2)CC1 — lower, 0.2%

same assay, conditions: second compound 3.16 µM; first compound 0.0316 µM; hits give low values

C=C(F)C(=O)N1CCN(c2nc(OCC3CCCN3C)nc3c2CCN(c2cccc4cccc(Cl)c24)C3)CC1CC#N (stereo not given) + CN1CCN(c2cc(C(=O)Nc3cc4cc(-c5cnn(C)c5)ccc4cn3)ccn2)CC1 was tested, and the viability, T/C was 0.12%.
